In patent US7691858B2, “Kinase inhibitors and methods of use thereof” (TargeGen, Inc., priority 2006, dated 2010):

Experiments:
Test in all cases: Kinase panel screen
Assay type in all cases: biochemical
Details in all cases: Compound I and ATP 10 μM
Flt1 = biological target: T1, Flt1 (Homo sapiens, UniProt P17948)
T1 construct: purchased Upstate USA or Invitrogen (commercial screening service)

Ron = biological target: T2, Ron (Homo sapiens, UniProt Q04912)
T2 construct: purchased Upstate USA or Invitrogen (commercial screening service)

ASK1 = biological target: T3, ASK1 (Homo sapiens, UniProt Q99683)
T3 construct: purchased Upstate USA or Invitrogen (contract screening service)
T3 sequence (Q99683 whole entry): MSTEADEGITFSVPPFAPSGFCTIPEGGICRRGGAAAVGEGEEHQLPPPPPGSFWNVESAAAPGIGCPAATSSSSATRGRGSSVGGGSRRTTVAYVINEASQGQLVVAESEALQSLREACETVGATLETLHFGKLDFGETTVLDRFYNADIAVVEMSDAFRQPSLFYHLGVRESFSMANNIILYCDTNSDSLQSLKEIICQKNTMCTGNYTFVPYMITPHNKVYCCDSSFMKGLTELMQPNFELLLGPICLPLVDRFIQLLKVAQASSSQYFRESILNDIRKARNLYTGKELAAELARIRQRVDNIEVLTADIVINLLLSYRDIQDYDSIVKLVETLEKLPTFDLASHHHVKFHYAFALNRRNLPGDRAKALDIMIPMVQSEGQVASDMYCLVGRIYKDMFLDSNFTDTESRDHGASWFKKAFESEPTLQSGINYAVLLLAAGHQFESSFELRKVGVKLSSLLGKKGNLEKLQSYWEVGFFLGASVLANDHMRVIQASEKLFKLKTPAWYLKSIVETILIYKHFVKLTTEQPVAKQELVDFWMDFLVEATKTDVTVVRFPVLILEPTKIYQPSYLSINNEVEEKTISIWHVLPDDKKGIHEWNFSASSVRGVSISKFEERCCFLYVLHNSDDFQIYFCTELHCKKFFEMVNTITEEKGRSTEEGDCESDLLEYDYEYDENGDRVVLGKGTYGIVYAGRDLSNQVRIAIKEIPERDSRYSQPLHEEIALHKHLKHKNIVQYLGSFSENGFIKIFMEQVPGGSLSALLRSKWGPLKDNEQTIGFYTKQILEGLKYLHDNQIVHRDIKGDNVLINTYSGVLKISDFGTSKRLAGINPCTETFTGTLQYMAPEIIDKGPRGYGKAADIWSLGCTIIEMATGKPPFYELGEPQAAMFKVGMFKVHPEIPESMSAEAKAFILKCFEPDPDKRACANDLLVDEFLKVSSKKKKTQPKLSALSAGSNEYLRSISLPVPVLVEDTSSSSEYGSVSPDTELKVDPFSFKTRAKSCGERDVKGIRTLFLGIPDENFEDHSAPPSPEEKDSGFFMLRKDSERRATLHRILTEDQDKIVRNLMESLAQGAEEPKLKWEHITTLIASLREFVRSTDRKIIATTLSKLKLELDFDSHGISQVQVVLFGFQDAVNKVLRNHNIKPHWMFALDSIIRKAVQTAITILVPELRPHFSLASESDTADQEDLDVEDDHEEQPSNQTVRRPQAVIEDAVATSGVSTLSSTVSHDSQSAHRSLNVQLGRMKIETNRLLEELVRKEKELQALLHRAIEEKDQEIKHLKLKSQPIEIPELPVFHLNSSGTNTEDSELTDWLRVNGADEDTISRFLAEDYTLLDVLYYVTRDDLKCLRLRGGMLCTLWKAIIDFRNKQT

T1 sequence (P17948 27-1338): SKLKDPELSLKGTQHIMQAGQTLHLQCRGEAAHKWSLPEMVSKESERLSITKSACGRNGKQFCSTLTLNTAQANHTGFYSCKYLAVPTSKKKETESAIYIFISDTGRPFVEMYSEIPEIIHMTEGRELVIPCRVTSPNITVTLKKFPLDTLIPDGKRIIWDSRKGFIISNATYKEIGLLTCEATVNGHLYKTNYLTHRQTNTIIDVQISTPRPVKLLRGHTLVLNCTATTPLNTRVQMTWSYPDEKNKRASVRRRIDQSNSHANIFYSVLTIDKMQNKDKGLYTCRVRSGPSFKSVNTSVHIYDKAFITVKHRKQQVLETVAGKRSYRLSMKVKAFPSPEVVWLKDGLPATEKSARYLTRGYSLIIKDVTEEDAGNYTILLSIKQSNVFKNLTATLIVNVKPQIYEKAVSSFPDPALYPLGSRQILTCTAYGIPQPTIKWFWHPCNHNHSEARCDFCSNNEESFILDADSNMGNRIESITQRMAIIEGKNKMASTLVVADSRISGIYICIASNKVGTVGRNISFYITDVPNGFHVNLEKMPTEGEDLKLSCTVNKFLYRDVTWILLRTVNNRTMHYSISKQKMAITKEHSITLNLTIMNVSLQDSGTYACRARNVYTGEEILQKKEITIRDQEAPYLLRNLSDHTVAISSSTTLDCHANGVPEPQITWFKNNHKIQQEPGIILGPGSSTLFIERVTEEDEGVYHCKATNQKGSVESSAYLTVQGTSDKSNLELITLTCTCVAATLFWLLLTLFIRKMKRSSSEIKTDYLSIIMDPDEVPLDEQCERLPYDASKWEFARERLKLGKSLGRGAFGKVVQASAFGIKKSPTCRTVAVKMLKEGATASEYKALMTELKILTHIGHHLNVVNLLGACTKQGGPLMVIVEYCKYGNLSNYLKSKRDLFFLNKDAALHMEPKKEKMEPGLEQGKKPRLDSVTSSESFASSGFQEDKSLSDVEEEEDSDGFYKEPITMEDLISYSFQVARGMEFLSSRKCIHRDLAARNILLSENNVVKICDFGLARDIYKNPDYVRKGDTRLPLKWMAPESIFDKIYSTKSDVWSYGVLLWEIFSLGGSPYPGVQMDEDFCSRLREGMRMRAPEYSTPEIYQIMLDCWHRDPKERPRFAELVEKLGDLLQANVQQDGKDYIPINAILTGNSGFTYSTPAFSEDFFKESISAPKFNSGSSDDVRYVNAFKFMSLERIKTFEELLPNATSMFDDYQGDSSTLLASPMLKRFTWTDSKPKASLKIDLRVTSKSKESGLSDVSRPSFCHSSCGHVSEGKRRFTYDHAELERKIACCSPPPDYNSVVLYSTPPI
T2 sequence (Q04912 25-1400): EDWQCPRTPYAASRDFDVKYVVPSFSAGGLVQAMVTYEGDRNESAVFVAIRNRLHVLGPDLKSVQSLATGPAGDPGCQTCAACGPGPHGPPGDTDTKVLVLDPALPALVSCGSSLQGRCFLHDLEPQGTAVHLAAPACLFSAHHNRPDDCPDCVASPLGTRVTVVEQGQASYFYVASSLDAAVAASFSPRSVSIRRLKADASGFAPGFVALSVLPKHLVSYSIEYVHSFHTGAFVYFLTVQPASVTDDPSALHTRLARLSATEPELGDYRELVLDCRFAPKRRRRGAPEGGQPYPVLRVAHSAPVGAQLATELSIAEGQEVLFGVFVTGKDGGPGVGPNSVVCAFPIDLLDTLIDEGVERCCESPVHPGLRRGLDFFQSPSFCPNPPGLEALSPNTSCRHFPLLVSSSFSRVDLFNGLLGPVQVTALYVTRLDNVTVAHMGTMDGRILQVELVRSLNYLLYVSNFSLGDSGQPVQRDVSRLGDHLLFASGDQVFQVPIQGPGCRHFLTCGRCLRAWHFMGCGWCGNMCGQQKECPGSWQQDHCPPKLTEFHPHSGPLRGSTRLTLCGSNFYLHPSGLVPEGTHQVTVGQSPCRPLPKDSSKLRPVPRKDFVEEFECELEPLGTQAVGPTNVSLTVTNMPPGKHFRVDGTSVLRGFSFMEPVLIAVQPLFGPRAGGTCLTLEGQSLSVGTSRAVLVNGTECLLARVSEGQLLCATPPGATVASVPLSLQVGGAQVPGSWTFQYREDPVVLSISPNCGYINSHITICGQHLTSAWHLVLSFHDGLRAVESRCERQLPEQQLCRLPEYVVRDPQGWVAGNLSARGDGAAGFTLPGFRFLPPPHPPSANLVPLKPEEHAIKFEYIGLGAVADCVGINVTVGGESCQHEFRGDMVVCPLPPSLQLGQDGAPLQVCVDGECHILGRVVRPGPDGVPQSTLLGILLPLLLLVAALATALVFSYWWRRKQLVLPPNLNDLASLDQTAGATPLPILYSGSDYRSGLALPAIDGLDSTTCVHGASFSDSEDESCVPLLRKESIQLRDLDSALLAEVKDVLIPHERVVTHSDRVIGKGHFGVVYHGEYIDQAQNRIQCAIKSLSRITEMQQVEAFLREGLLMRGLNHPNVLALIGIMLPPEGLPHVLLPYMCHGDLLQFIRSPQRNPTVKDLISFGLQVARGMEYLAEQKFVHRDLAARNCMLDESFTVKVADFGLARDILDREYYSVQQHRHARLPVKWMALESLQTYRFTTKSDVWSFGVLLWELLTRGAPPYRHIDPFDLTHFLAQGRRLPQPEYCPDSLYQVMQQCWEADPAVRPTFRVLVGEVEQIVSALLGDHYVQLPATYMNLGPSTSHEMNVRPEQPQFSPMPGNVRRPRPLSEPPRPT

Nc1nc(N)c2nc(-c3cccc(O)c3)c(-c3cccc(O)c3)nc2n1 [Compound I, 6,7-bis-(3-hydroxyphenyl)-pteridine-2,4-diamine] was tested, and the “Percent Control, Flt1” value (Flt1) was 62%, the “Percent Control, Ron” value (Ron) was 71% and the “Percent Control, ASK1” value (ASK1) was 105%.
